Experimental data taken from the NIST ThermoML archive (doi:10.1016/j.jct.2011.08.016).

Experiment: xn = mol fraction of the nth substance listed
Details: Liquid, Vibrating tube method

CCCCCCCCCC [decane] + CCCCCCCC
Details | mass density [kg/m3]
323.15 K, 13000 kPa, x2 = 0.7736 | 698.56
323.15 K, 13000 kPa, x2 = 0.9623 | 692.26
323.15 K, 14000 kPa, x2 = 0.5314 | 706.56
323.15 K, 14000 kPa, x2 = 0.7736 | 699.43
323.15 K, 14000 kPa, x2 = 0.9623 | 693.16
323.15 K, 15000 kPa, x2 = 0.5314 | 707.39
323.15 K, 15000 kPa, x2 = 0.7736 | 700.3
323.15 K, 15000 kPa, x2 = 0.9623 | 694.06
323.15 K, 16000 kPa, x2 = 0.5314 | 708.22
323.15 K, 16000 kPa, x2 = 0.7736 | 701.16
323.15 K, 16000 kPa, x2 = 0.9623 | 694.94
323.15 K, 17000 kPa, x2 = 0.5314 | 709.02
323.15 K, 17000 kPa, x2 = 0.7736 | 702
323.15 K, 17000 kPa, x2 = 0.9623 | 695.8
323.15 K, 18000 kPa, x2 = 0.5314 | 709.85
323.15 K, 18000 kPa, x2 = 0.7736 | 702.81
323.15 K, 18000 kPa, x2 = 0.9623 | 696.65
323.15 K, 19000 kPa, x2 = 0.5314 | 710.62
323.15 K, 19000 kPa, x2 = 0.7736 | 703.6
323.15 K, 19000 kPa, x2 = 0.9623 | 697.48
323.15 K, 20000 kPa, x2 = 0.5314 | 711.38
323.15 K, 20000 kPa, x2 = 0.7736 | 704.4
323.15 K, 20000 kPa, x2 = 0.9623 | 698.3
323.15 K, 21000 kPa, x2 = 0.5314 | 712.12
323.15 K, 21000 kPa, x2 = 0.7736 | 705.18
323.15 K, 21000 kPa, x2 = 0.9623 | 699.1
323.15 K, 22000 kPa, x2 = 0.5314 | 712.85
323.15 K, 22000 kPa, x2 = 0.7736 | 705.95
323.15 K, 22000 kPa, x2 = 0.9623 | 699.83
323.15 K, 23000 kPa, x2 = 0.5314 | 713.54
323.15 K, 23000 kPa, x2 = 0.7736 | 706.68
323.15 K, 23000 kPa, x2 = 0.9623 | 700.57
323.15 K, 24000 kPa, x2 = 0.5314 | 714.24
323.15 K, 24000 kPa, x2 = 0.7736 | 707.39
323.15 K, 24000 kPa, x2 = 0.9623 | 701.31
323.15 K, 25000 kPa, x2 = 0.5314 | 714.88
323.15 K, 25000 kPa, x2 = 0.7736 | 708.08
323.15 K, 25000 kPa, x2 = 0.9623 | 702
323.19 K, 1000 kPa, x2 = 0.0616 | 706.61
323.19 K, 2000 kPa, x2 = 0.0616 | 707.46
323.19 K, 3000 kPa, x2 = 0.0616 | 708.43
323.19 K, 4000 kPa, x2 = 0.0616 | 709.27
323.19 K, 5000 kPa, x2 = 0.0616 | 710.19
323.19 K, 6000 kPa, x2 = 0.0616 | 711.06
323.19 K, 7000 kPa, x2 = 0.0616 | 711.94
323.19 K, 8000 kPa, x2 = 0.0616 | 712.81
323.19 K, 9000 kPa, x2 = 0.0616 | 713.68
323.19 K, 10000 kPa, x2 = 0.0616 | 714.53
323.19 K, 10990 kPa, x2 = 0.0616 | 715.36
323.19 K, 12000 kPa, x2 = 0.0616 | 716.18
323.19 K, 13000 kPa, x2 = 0.0616 | 716.99
323.19 K, 14000 kPa, x2 = 0.0616 | 717.79
323.19 K, 15000 kPa, x2 = 0.0616 | 718.57
323.19 K, 16000 kPa, x2 = 0.0616 | 719.34
323.19 K, 17000 kPa, x2 = 0.0616 | 720.12
323.19 K, 18000 kPa, x2 = 0.0616 | 720.9
323.19 K, 19000 kPa, x2 = 0.0616 | 721.64
323.19 K, 20000 kPa, x2 = 0.0616 | 722.37
323.19 K, 21000 kPa, x2 = 0.0616 | 723.09
323.19 K, 22000 kPa, x2 = 0.0616 | 723.78
323.19 K, 23000 kPa, x2 = 0.0616 | 724.44
323.19 K, 24000 kPa, x2 = 0.0616 | 725.08
323.19 K, 25000 kPa, x2 = 0.0616 | 725.73
333.12 K, 1000 kPa, x2 = 0.0616 | 698.91
333.12 K, 1000 kPa, x2 = 0.2801 | 693.73
333.12 K, 2000 kPa, x2 = 0.0616 | 699.91
333.12 K, 2000 kPa, x2 = 0.2801 | 694.68
333.12 K, 3000 kPa, x2 = 0.0616 | 700.87
333.12 K, 3000 kPa, x2 = 0.2801 | 695.65
333.12 K, 4000 kPa, x2 = 0.0616 | 701.83
333.12 K, 4000 kPa, x2 = 0.2801 | 696.63
333.12 K, 5000 kPa, x2 = 0.0616 | 702.77
333.12 K, 5000 kPa, x2 = 0.2801 | 697.61
333.12 K, 6000 kPa, x2 = 0.0616 | 703.69
333.12 K, 6000 kPa, x2 = 0.2801 | 698.55
333.12 K, 7000 kPa, x2 = 0.0616 | 704.67
333.12 K, 7000 kPa, x2 = 0.2801 | 699.5
333.12 K, 8000 kPa, x2 = 0.0616 | 705.56
333.12 K, 8000 kPa, x2 = 0.2801 | 700.43
333.12 K, 9000 kPa, x2 = 0.0616 | 706.45
333.12 K, 9000 kPa, x2 = 0.2801 | 701.36
333.12 K, 10000 kPa, x2 = 0.0616 | 707.38
333.12 K, 10000 kPa, x2 = 0.2801 | 702.27
333.12 K, 10990 kPa, x2 = 0.0616 | 708.26
333.12 K, 10990 kPa, x2 = 0.2801 | 703.19
333.12 K, 12000 kPa, x2 = 0.0616 | 709.09
333.12 K, 12000 kPa, x2 = 0.2801 | 704.1
333.12 K, 13000 kPa, x2 = 0.0616 | 709.96
333.12 K, 13000 kPa, x2 = 0.2801 | 704.98
333.12 K, 14000 kPa, x2 = 0.0616 | 710.8
333.12 K, 14000 kPa, x2 = 0.2801 | 705.81
333.12 K, 15000 kPa, x2 = 0.0616 | 711.63
333.12 K, 15000 kPa, x2 = 0.2801 | 706.72
333.12 K, 16000 kPa, x2 = 0.0616 | 712.43
